The text below walks through data of ChEMBL document CHEMBL1122286, “Heterocyclic oxyacetic acid diuretics: indazole, benzisothiazole, and benzisothiazole 1,1-dioxide analogues of [[7-chloro-3-(2-fluorophenyl)-1,2-benzisoxazol-6-yl]oxy]acetic acid” (1983).

What all share (assay type): functional, Urine
The test system of assay [1] is Mus musculus. The assay is described as follows: Compound was tested for diuretic activity after oral administration of 64 mg/kg in saline-loaded mice (vehicle control value=0.8).
Assay [2] deals with Mus musculus. The assay can be described thus: Compound was tested for diuretic activity after oral administration of 64 mg/kg in saline-loaded mice (vehicle control value=0.27).
For assay [3], the system named is Mus musculus. The assay can be described thus: Compound was tested for diuretic activity after oral administration of 64 mg/kg in saline-loaded mice (vehicle control value=0.3).
Assay [4] has as its system Mus musculus. The assay can be described thus: Compound was tested for diuretic activity after oral administration of 64 mg/kg in saline-loaded mice (vehicle control value=0.42).
The test system of assay [5] is Mus musculus. The assay is described as follows: Compound was tested for diuretic activity after oral administration of 64 mg/kg in saline-loaded mice (vehicle control value=0.05).
The test system of assay [6] is Mus musculus. The assay can be described thus: Compound was tested for diuretic activity after oral administration of 64 mg/kg in saline-loaded mice (vehicle control value=0.1).
Assay [7] deals with Mus musculus. The assay is described as follows: Compound was tested for diuretic activity after oral administration of 64 mg/kg in saline-loaded mice (vehicle control value=0.2).
Assay [8] relates to Mus musculus. The assay can be described thus: Compound was tested for diuretic activity per os in saline-loaded mice at 64 mg/kg. (vehicle control value=1.22).
The subject of assay [9] is Mus musculus. The assay is described as follows: Compound was tested for diuretic activity after oral administration of 64 mg/kg in saline-loaded mice (vehicle control value=0.56).
The subject of assay [10] is Mus musculus. The assay can be described thus: Compound was tested for diuretic activity after oral administration of 64 mg/kg in saline-loaded mice vehicle control value=0.25).
For assay [11], the system named is Mus musculus. The assay is described as follows: Compound was tested for diuretic activity after oral administration of 64 mg/kg in saline-loaded mice (vehicle control value=0.68).
The test system of assay [12] is Mus musculus. The assay is described as follows: Compound was tested for diuretic activity after oral administration of 64 mg/kg in saline-loaded mice (vehicle control value=0.6).
The test system of assay [13] is Mus musculus. The assay can be described thus: Compound was tested for diuretic activity after oral administration of 64 mg/kg in saline-loaded mice vehicle control value=0.72).

`O=C(O)COc1ccc(C2=NS(=O)(=O)c3ccccc32)c(Cl)c1Cl` showed a Diuretic activity in assay [1] of 2.03 m equiv [Na+] 5hr-1kg-1.
Still for that read-out and setting: next, `O=C(O)COc1ccc2c(c1Cl)S(=O)(=O)N=C2c1ccccc1F`: 0.18 m equiv [Na+] 5hr-1kg-1.
`O=C(O)COc1ccc2c(-c3ccccc3F)[nH]nc2c1Cl`: in assay [2], the Diuretic activity turned out to be 0.45 m equiv [Na+] 5hr-1kg-1.
With `C=C(CC)C(=O)c1ccc(OCC(=O)O)c(Cl)c1Cl` [ETHACRYNIC ACID], in [3], the Diuretic activity is 4.14 (m equiv [Na+]) kg-1.
On to `Cn1nc(-c2ccc(OCC(=O)O)c(Cl)c2Cl)c2ccccc21`, for which the Diuretic activity in [4] came out at 0.61 m equiv [Na+] 5hr-1kg-1.
`O=C(O)COc1ccc2c(-c3ccccc3F)noc2c1Cl` had a Diuretic activity in assay [5] of 10 m equiv [Na+] 5hr-1kg-1.
Consider `O=C(O)COc1ccc(C(=O)c2cccs2)c(Cl)c1Cl` [TICRYNAFEN], for which, in assay [6], the Diuretic activity was determined as 3.31 m equiv [Na+] 5hr-1kg-1.
`CC1(c2ccccc2)Cc2cc(OCC(=O)O)c(Cl)c(Cl)c2C1=O` (centres undefined) [INDACRINONE] showed a Diuretic activity in [7] of 7.6 m equiv [Na+] 5hr-1kg-1.
With `O=C(O)COc1ccc2c(-c3ccccc3)nsc2c1Cl`, the Diuretic activity in assay [8] is 2.28 (m equiv [Na+]) 5hr-1 kg-1.
In [9], `O=C(O)COc1ccc(-c2[nH]nc3ccccc23)c(Cl)c1Cl` displayed a Diuretic activity of 0.65 m equiv [Na+] 5hr-1kg-1.
`O=C(O)COc1ccc2c(-c3ccccc3F)nsc2c1Cl` showed a Diuretic activity in assay [10] of 4.59 m equiv [Na+] 5hr-1kg-1.
With `Cn1nc(-c2ccccc2Cl)c2ccc(OCC(=O)O)c(Cl)c21`, in assay [11], the Diuretic activity amounted to 2.29 m equiv [Na+] 5hr-1kg-1.
As to `O=C(O)COc1ccc2c(-c3ccccc3Cl)noc2c1Cl`, the Diuretic activity in assay [12] was found to be 9.1 m equiv [Na+] 5hr-1kg-1.
Take `O=C(O)COc1ccc(-c2nsc3ccccc23)c(Cl)c1Cl`: the Diuretic activity in assay [13] was 1.18 m equiv [Na+] 5hr-1kg-1.
